Experimental data published in patent US12544463B2, “Deuterium substituted positron emission tomography (PET) imaging agents and their pharmacological application” (Five Eleven Pharma Inc., priority 2017, dated 2026).
Blank lines part the entries; values can stand above or below the molecule they belong to.

Legend:
[1] = target: T1, serotonin transporters (SERT) (Rattus norvegicus, UniProt P31652); assay: In vitro binding assay, LLC-SERT membrane homogenates, [^125I]IDAM; conditions: for Ki: 0.2 nM [^125I]IDAM, LLC-SERT membranes, read-out: Ki (SERT binding affinity) (converted)
T1 construct: expressed in transfected cells; host or cells: LLC-PK1 (LLC-SERT)
T1 sequence (P31652 whole entry): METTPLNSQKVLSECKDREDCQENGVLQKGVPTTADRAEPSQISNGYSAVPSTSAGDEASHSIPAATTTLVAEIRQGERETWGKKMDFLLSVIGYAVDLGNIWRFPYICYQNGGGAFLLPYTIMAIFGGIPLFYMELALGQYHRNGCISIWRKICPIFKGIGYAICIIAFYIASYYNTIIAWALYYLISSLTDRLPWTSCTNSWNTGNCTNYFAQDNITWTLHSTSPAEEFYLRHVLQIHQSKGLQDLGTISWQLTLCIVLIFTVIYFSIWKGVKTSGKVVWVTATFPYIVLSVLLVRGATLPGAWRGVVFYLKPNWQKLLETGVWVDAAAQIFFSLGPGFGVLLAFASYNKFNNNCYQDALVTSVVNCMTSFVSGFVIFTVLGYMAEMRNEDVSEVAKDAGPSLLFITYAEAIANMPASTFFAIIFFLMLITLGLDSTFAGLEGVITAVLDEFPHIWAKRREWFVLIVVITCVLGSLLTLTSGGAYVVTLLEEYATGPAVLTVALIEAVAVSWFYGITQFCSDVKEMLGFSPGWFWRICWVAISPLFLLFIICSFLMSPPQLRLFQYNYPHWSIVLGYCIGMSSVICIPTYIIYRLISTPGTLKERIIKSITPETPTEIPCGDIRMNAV
Method: The membrane homogenates of serotonin transporters (LLC-SERT, which were expressed in a common parental cell line LLC-PK1) were prepared and used for the binding assays. Competitive binding assays were performed in a final volume of 0.25 mL. […] Nonspecific binding was defined with 10 μM citalopram. Incubation was carried out for 60 min at room temperature and the bound ligand was collected on glass fiber filters presoaked with 1% polyethylenimine (SIGMA, St. Louis, MO) and counted in a gamma counter (Wizard^2, Perkin Elmer).

[2] = Biodistribution study in mice; type: in vivo; conditions: for Biodistribution Blood / Biodistribution Bone / Biodistribution Brain / Biodistribution Heart / Biodistribution Kidney / Biodistribution Liver / Biodistribution Lung / Biodistribution Muscle / Biodistribution Pancreas / Biodistribution Skin / Biodistribution Spleen: normal male mice
Method: Three mice per group were used for biodistribution study. While under isoflurane anesthesia, 0.1 mL of a saline solution containing radioactive tracer was injected into tail vein. The mice were sacrificed at the time indicated by cardiac excision while under isoflurane anesthesia. Organs of interest were removed and weighed, and the radioactivity was counted. The percent dose per organ was calculated by comparing the tissue counts to counts of 1% of the initial dose (100 times diluted aliquots of the injected material) measured at the same time.

Biodistribution Blood ([2]; 2 min): 2.16 ± 0.05 % Dose/g | Biodistribution Bone ([2]; 2 min): 1.74 ± 0.18 % Dose/g | Biodistribution Brain ([2]; 2 min): 6.26 ± 0.23 % Dose/g | Biodistribution Heart ([2]; 2 min): 5.08 ± 0.39 % Dose/g | Biodistribution Kidney ([2]; 2 min): 9.51 ± 0.80 % Dose/g | Biodistribution Liver ([2]; 2 min): 12.0 ± 0.70 % Dose/g | Biodistribution Lung ([2]; 2 min): 4.88 ± 0.16 % Dose/g | Biodistribution Muscle ([2]; 2 min): 3.21 ± 0.14 % Dose/g | Biodistribution Pancreas ([2]; 2 min): 4.94 ± 0.77 % Dose/g | Biodistribution Skin ([2]; 2 min): 1.24 ± 0.27 % Dose/g | Biodistribution Spleen ([2]; 2 min): 2.50 ± 0.12 % Dose/g | Biodistribution Blood ([2]; 30 min): 2.93 ± 0.27 % Dose/g | Biodistribution Bone ([2]; 30 min): 2.24 ± 0.44 % Dose/g | Biodistribution Brain ([2]; 30 min): 1.71 ± 0.37 % Dose/g | Biodistribution Heart ([2]; 30 min): 2.40 ± 0.39 % Dose/g | Biodistribution Kidney ([2]; 30 min): 6.41 ± 1.86 % Dose/g | Biodistribution Liver ([2]; 30 min): 12.0 ± 0.71 % Dose/g | Biodistribution Lung ([2]; 30 min): 2.90 ± 0.47 % Dose/g | Biodistribution Muscle ([2]; 30 min): 1.79 ± 0.06 % Dose/g | Biodistribution Pancreas ([2]; 30 min): 2.05 ± 0.29 % Dose/g | Biodistribution Skin ([2]; 30 min): 2.07 ± 0.14 % Dose/g | Biodistribution Spleen ([2]; 30 min): 1.52 ± 0.21 % Dose/g | Biodistribution Blood ([2]; 60 min): 2.08 ± 0.07 % Dose/g | Biodistribution Bone ([2]; 60 min): 2.76 ± 0.37 % Dose/g | Biodistribution Brain ([2]; 60 min): 1.53 ± 0.20 % Dose/g | Biodistribution Heart ([2]; 60 min): 1.72 ± 0.19 % Dose/g | Biodistribution Kidney ([2]; 60 min): 3.74 ± 0.47 % Dose/g | Biodistribution Liver ([2]; 60 min): 8.15 ± 0.75 % Dose/g | Biodistribution Lung ([2]; 60 min): 1.97 ± 0.25 % Dose/g | Biodistribution Muscle ([2]; 60 min): 1.20 ± 0.04 % Dose/g | Biodistribution Pancreas ([2]; 60 min): 1.43 ± 0.20 % Dose/g | Biodistribution Skin ([2]; 60 min): 1.34 ± 0.07 % Dose/g | Biodistribution Spleen ([2]; 60 min): 1.22 ± 0.12 % Dose/g | Biodistribution Blood ([2]; 120 min): 1.36 ± 0.12 % Dose/g | Biodistribution Bone ([2]; 120 min): 4.41 ± 0.77 % Dose/g | Biodistribution Brain ([2]; 120 min): 1.26 ± 0.04 % Dose/g | Biodistribution Heart ([2]; 120 min): 1.18 ± 0.03 % Dose/g | Biodistribution Kidney ([2]; 120 min): 2.09 ± 0.02 % Dose/g | Biodistribution Liver ([2]; 120 min): 5.47 ± 0.29 % Dose/g | Biodistribution Lung ([2]; 120 min): 1.31 ± 0.03 % Dose/g | Biodistribution Muscle ([2]; 120 min): 0.75 ± 0.07 % Dose/g | Biodistribution Pancreas ([2]; 120 min): 0.87 ± 0.15 % Dose/g | Biodistribution Skin ([2]; 120 min): 0.91 ± 0.13 % Dose/g | Biodistribution Spleen ([2]; 120 min): 0.83 ± 0.07 % Dose/g
SMILES: [2H]C([2H])([2H])Nc1ccc(/C=C/c2ccc(OCCOCCOCC[18F])nc2)cc1 [^18F-AV-45-D3 (IIa1)]
brain uptake ([2]; mice, after i.v. injection): excellent brain uptake comparable to that observed to ^18F-AV-45

Ki [1]: 5.26 ± 0.66 nM
SMILES: CNCc1cc(OCCCF)ccc1Sc1ccccc1N [III-6-5]

Ki [1]: 0.024 nM
SMILES: [2H]C([2H])(F)C([2H])([2H])C([2H])([2H])Oc1ccc(Sc2ccc(F)cc2N)c(CN(C)C)c1 [III-4-27]

The next lines start with the molecule.

SMILES: [2H]C([2H])(F)C([2H])([2H])C([2H])([2H])Oc1ccc(Sc2ccc(Br)cc2N)c(CN(C)C)c1 [III-4-26]
Ki [1]: 0.021 nM

SMILES: CN(C)Cc1ccccc1Sc1ccc(I)cc1CO [[^125I]IDAM, reference compound]
Kd ([1]; value used in Cheng-Prusoff equation): 0.2 nM

SMILES: [2H]C([2H])(F)C([2H])([2H])C([2H])([2H])Oc1ccc(Sc2ccccc2N)c(CN(C)C)c1 (single isomer, unassigned) [III-4-2]
Ki [1]: 0.14 ± 0.06 nM

SMILES: CN(C)Cc1cc(O)ccc1Sc1ccc(Br)cc1N [III-4-18]
Ki [1]: 0.02 nM

SMILES: CN(C)Cc1cc(O)ccc1Sc1ccccc1N [III-1-1]
Ki [1]: 1.21 ± 0.15 nM

SMILES: CN(C)Cc1cc(OCCCF)ccc1Sc1ccccc1N [III-1 (FPBM), reference compound]
Ki [1]: 0.052 ± 0.007 nM

SMILES: [2H]C([2H])([2H])N(Cc1cc(OCCCF)ccc1Sc1ccccc1N)C([2H])([2H])[2H] (single isomer, unassigned) [III-2]
Ki [1]: 0.032 ± 0.013 nM

SMILES: [2H]C([2H])([2H])N(Cc1cc(O)ccc1Sc1ccccc1N)C([2H])([2H])[2H] [III-2-4]
Ki [1]: 2.02 ± 0.54 nM
